From US6569832B1, “Inhibition of beta cell degeneration” (Novo Nordisk A/S, priority 1999, dated 2003)

Assays:
beta-cells [1] = assay: beta-cell proliferation rate (BrDU incorporation) in pancreas of treated ZDF rats; format: in vivo, male Zucker Diabetic Fatty fa/fa (ZDF) rat
Description: (§1) The male Zucker Diabetic Fatty fa/fa (ZDF) rat is a model of Type 2 diabetes. The rats are insulin resistant but normoglycemic from birth and they develop diabetes from about week 7 to week 10 of age. During the transitional period, the animals go through a state of impaired glucose tolerance. Although the animals are hyperinsulinemic before diabetes onset and during the early stages of diabetes, they later lose glucose-stimulated insulin secretion and finally become almost completely insulinopenic.
We have studied the effects of Arg^34, Lys^26(N-ε-(γ-Glu(N-α-hexadecanoyl)))-GLP-1(7-37) therapy during a period of time when the animals would normally progress from having impaired glucose tolerance to having overt Type 2 diabetes. Three groups of male ZDF rats (Genetic Models Inc, Indianapolis, Ind., USA) were studied and dosed subcutaneously bi-daily with either vehicle (group A), 30 (group B) or 150 μg/kg (group C) of Arg^34, Lys^26(N-ε-(γ-Glu(N-α-hexadecanoyl)))-GLP-1(7-37), n=6 per group. Animals were between 7 and 8 weeks old when dosing was initiated, and fed glucose levels were not different between the groups before dosing began.
Bromodeoxyuridine (BrDU) is incorporated in newly synthesized DNA and thus will label replicating cells. Six hours before sacrifice the rats were given an injection of 100 mg BrDU/kg intraperitoneally. […]

beta-cells [2] = assay: volume fraction of beta-cells related to total pancreas volume in treated ZDF rats (point counting stereology); format: in vivo, male Zucker Diabetic Fatty fa/fa (ZDF) rat
Description: as §1
We have studied the effects of Arg^34, Lys^26(N-ε-(γ-Glu(N-α-hexadecanoyl)))-GLP-1(7-37) therapy during a period of time when the animals would normally progress from having impaired glucose tolerance to having overt Type 2 diabetes. […]
Neighbor sections were stained for insulin and the combination of glucagon-somatostatin-pancreatic polypeptide for the measurement of the relative mass of islet beta-cells and nonbeta-cells. […] The nonbeta-cells were stained with a mixture of monoclonal mouse anti-glucagon+rabbit anti-somatostatin+rabbit anti-pancreatic polypeptide, detected by biotinylated swine anti-multible Ig's, avidin peroxidase, and developed with DAB and CuSO4 to give a dark brown stain. […]

neonatal rat islet cells = assay: cytokine-induced apoptosis in neonatal rat islet cells (annexin V-FITC/PI flow cytometry); format: cell-based
Procedure: Neonatal rats were sacrificed and pancreata were aseptically isolated. Islets of Langerhans were isolated by standard techniques. Intact islets were cultured in 6-well tissue culture plates at 750 islets/well (Nunc, Roskilde, Denmark) with or without 40 U/ml recombinant rat interleukin 1, 100 U/ml interferon-γ, and 100 U/ml tumor necrosis factor-α (all from Peprotech, London, UK) and the indicated doses of the GLP-1 derivative, Arg^34, Lys^26(N-ε-(γ-Glu(N-α-hexadecanoyl)))-GLP-1(7-37). After 24 hours of in vitro culture, single cell suspensions were obtained from the islets by gentle triturating in trypsin. After 2 rounds of washing, islet cells were reacted with annexin V-FITC and propedium iodide (PI) using a commercial staining kit according to the manufactures recommendations (Pharmingen, San Diego, Calif., USA). At the end of incubation the samples were analyzed by flow cytometry using a FACScalibur (Becton Dickinson, Mountain View, Calif., USA). Dead cells were excluded by gating on PI-negative cells, 25000 viable cells were acquired per sample. Data were analyzed using the CellQuest software (Becton Dickinson).

Substance: Arg^34, Lys^26(N-ε-(γ-Glu(N-α-hexadecanoyl)))-GLP-1(7-37)
- beta-cell proliferation at the dose where volume of beta-cells increased (beta-cells [1]; 30 ng/g): proliferation was not seen
- fraction of beta-cells that had incorporated BrDU (percentage of BrDU positive beta-cells) (beta-cells [1]; subcutaneously bi-daily 30 or 150 μg/kg vs vehicle, n=6 per group, BrDU 6 hours before sacrifice): dose dependent increase
- beta-cell fraction of the total pancreas compared to vehicle treated rats (beta-cells [2]; 30 ng/g for 6 weeks): significantly higher
- beta-cell fraction of the total pancreas, further increase over the 30 ng/g dose (beta-cells [2]; 150 ng/g): no further increase
- reduction in the cytokine-induced apoptosis (neonatal rat islet cells; 100 nM, 24 hours with interleukin 1 40 U/ml, interferon-γ 100 U/ml, tumor necrosis factor-α 100 U/ml): approximately 50%
- block of cytokine-induced apoptosis in islet cells ex vivo (neonatal rat islet cells; 24 hour incubation with cytokine mix): able to block
- effect of the compound itself on the level of islet cell apoptosis (neonatal rat islet cells; without cytokine mix, 24 hours): no effect
